# Laboratory results reported in US20200390909A1, “DRUG FRAGMENT IMAGING AGENT CONJUGATES” (The Board of Trustees of the Leland Stanford Junior …, priority 2018, published 2020).
# Assays:
# [1] = systemically administered, clinical optical contrast agent; cited from earlier work
# breast tumor = assay: NIRF imaging of breast tumor after oral gavage of systemic functional dye; format: in vivo, mouse
# Experimental: FIG. 6A-6D. Highlighting a breast tumor following oral administration of an exemplary systemic functional dye (Compound (8), SU780). FIG. 6A NIRF imaging of the intact mouse 24 h post oral gavage of SU780.
# A wild type with an unidentified spontaneous flank tumor received an oral gavage of Compound (8) (SU780) (0.4 mg/kg). The following day, the animal was sacrificed, and the tumor was subjected to NIRF imaging.
# Shown in FIG. 6 is the highlighting of a breast tumor following oral administration of the systemic functional dye Compound (8) (SU780).
Compound,TBR [1],localisation in H&E processed tumor section (breast tumor; after tissue processing for H&E),"fluorescence of residual tumor tissue in resection bed (image-guided resection) (breast tumor; after tumor resection, oral gavage)","highlighting of tumor by NIRF imaging after oral administration (breast tumor; mouse with spontaneous flank (breast) tumor, oral gavage 0.4 mg/kg, following day, resected tumor)","NIRF signal at tumor margin / tumor infiltration into normal tissue (tissue section) (breast tumor; oral gavage 0.4 mg/kg, 0.4 mg/kg)","NIRF signal at tumor margin / tumor infiltration into normal tissue (tissue section) (breast tumor; oral gavage 0.4 mg/kg, listed as SU780, 0.4 mg/kg)"
CC1(C)C(/C=C/C2=C(Oc3ccc(C[C@H](NC(=O)c4ccc(NCc5cnc6nc(N)[nH]c(=O)c6n5)cc4)C(=O)[O-])cc3)C(=C/C=C3\N(CCCCS(=O)(=O)[O-])c4ccc(S(=O)(=O)[O-])cc4C3(C)C)/CCC2)=[N+](CCCCS(=O)(=O)[O-])c2ccc(S(=O)(=O)[O-])cc21.[H+].[H+].[H+].[H+] [OTL38],4.4,,,,,
CCCN1/C(=C/C=C2\CCCC(/C=C/C3=[N+](CCC)c4ccccc4C3(C)C)=C2Nc2ccc(NC(=O)CN3CCOCC3)cc2)C(C)(C)c2ccccc21 [Compound (8)],,highlights mainly epithelial cancer cells,residual tumor tissue was fluorescing in the resection bed,highlights the tumor,perfect correlation with tumor infiltration into normal tissues,highlights the finger-like infiltration of the breast cancer cells into normal mammary fat pad
